PMC8213057, “Targeting ALK2: An Open Science Approach to Developing Therapeutics for the Treatment of Diffuse Intrinsic Pontine Glioma” (Journal of Medicinal Chemistry, 2020)
“And” between values parts separate entries of the source, which are not always exact repeats. Equal entries are not always repeated.

Columns and labels:
FGR = FGR (Homo sapiens, UniProt P09769); assay: biochemical; conditions: read-out: % enzyme activity, 1 μM; Run 1, Run 2
ZIPK/DAPK3 = ZIPK/DAPK3 (Homo sapiens, UniProt O43293); assay: biochemical; conditions: read-out: % enzyme activity, 1 μM; Run 1, Run 2
Chain of ZIPK/DAPK3 (O43293 whole entry): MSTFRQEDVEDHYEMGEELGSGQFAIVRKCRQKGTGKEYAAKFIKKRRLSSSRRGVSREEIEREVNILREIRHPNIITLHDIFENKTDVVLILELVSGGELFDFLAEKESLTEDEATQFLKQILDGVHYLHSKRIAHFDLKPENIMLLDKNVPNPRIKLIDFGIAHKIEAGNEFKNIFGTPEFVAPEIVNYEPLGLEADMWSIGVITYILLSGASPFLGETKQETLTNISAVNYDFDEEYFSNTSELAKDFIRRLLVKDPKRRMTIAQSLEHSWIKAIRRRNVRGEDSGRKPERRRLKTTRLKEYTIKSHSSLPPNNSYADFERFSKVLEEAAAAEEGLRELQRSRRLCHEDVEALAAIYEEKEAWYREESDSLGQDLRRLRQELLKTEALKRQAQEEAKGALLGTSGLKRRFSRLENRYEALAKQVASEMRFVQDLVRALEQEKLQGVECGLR

PKG2/PRKG2 = target: T1, PKG2/PRKG2 (Homo sapiens, UniProt Q13237); assay: biochemical; conditions: read-out: % enzyme activity, 1 μM; Run 1, Run 2
T1 sequence (Q13237 1-762): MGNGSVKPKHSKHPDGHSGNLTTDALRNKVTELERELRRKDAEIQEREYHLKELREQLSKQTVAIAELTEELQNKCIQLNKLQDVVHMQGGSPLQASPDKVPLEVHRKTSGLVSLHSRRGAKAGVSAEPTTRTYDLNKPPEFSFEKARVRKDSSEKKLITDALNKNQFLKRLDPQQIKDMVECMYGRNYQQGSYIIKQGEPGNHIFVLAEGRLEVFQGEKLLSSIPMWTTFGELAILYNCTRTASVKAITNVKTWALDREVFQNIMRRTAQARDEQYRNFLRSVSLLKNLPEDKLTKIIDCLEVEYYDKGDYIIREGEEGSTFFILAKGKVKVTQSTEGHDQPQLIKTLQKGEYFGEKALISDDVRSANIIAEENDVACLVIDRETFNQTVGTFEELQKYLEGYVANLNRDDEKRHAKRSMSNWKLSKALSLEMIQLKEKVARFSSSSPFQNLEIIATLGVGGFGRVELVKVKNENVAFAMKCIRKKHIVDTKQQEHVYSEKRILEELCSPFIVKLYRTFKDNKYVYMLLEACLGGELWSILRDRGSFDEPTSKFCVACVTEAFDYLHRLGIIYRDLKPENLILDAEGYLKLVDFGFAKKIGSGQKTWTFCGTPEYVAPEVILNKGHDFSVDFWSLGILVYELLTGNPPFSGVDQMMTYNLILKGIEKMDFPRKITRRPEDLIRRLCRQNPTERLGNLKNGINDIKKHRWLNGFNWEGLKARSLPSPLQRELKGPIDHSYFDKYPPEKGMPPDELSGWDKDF

SYK = SYK (Homo sapiens, UniProt P43405); conditions: 1 μM; Run 1, Run 2
PKD2/PRKD2 = target: T2, PKD2/PRKD2 (Homo sapiens, UniProt Q9BZL6); conditions: 1 μM; Run 1, Run 2
T2 sequence (Q9BZL6 1-878): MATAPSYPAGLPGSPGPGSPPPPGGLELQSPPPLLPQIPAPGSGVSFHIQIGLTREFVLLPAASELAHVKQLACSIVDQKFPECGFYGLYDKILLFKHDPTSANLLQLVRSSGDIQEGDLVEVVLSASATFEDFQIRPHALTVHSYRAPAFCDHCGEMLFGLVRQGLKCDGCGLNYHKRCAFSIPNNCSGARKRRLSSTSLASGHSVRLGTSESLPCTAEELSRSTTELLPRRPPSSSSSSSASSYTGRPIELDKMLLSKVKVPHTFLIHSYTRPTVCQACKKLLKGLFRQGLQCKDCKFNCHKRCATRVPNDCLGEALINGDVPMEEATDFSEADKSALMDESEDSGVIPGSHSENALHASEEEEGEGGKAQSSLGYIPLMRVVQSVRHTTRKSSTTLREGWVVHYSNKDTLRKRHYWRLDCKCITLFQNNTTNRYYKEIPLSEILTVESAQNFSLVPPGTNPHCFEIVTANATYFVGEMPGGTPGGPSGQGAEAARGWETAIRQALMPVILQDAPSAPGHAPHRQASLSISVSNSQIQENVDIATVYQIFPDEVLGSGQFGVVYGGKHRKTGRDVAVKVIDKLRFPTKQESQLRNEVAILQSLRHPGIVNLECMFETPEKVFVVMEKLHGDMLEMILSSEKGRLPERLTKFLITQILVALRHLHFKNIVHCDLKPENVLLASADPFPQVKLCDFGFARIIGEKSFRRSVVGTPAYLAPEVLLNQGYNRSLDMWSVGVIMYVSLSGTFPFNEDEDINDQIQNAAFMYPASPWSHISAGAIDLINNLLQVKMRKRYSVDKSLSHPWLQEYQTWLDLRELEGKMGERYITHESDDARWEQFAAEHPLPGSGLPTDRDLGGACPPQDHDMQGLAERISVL

PRKX = target: T3, PRKX (Homo sapiens, UniProt P51817); assay: biochemical; conditions: read-out: % enzyme activity, 1 μM; Run 1, Run 2
T3 sequence (P51817 1-358): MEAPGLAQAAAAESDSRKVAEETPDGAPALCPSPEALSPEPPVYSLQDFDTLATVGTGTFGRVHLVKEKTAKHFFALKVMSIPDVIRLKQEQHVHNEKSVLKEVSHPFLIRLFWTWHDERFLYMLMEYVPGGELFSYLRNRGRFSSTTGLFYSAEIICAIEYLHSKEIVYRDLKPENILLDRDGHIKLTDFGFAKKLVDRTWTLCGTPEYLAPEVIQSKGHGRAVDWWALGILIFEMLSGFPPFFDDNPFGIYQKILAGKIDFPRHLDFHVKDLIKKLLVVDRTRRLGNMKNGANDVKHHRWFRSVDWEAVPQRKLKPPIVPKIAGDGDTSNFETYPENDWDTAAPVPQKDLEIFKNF

NEK11 = target: T4, NEK11 (Homo sapiens, UniProt Q8NG66); assay: biochemical; conditions: read-out: % enzyme activity, 1 μM; Run 1, Run 2
T4 sequence (Q8NG66 1-645): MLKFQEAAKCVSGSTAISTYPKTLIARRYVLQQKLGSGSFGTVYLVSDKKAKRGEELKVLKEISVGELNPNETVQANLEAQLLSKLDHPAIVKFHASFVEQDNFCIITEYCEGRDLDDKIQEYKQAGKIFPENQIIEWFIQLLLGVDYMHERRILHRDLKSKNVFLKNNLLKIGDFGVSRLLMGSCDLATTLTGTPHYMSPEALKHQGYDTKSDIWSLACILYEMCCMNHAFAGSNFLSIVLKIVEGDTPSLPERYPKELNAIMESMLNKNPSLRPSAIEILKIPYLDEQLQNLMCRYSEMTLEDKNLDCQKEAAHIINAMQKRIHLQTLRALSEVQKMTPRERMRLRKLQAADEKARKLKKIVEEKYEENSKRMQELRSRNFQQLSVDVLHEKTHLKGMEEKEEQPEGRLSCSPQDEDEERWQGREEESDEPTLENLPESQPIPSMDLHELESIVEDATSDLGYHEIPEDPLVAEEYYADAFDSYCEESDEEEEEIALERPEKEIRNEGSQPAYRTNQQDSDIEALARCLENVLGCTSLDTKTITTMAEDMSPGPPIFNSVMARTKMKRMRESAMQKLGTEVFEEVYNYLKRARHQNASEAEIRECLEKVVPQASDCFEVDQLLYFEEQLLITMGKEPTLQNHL

MEK1 = MEK1 (Homo sapiens, UniProt Q02750); assay: biochemical; conditions: read-out: % enzyme activity, 1 μM; Run 1, Run 2
Chain of MEK1 (Q02750 whole entry): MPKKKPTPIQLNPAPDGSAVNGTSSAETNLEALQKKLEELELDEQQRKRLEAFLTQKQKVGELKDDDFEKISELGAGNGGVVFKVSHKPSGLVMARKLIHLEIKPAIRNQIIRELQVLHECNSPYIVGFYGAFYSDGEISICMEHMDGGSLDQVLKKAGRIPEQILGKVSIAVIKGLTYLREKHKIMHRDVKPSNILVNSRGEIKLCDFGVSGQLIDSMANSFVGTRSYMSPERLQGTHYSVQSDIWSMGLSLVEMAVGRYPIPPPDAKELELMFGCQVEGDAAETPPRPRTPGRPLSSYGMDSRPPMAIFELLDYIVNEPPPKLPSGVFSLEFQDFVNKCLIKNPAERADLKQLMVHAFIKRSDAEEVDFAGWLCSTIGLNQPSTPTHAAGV

Chain of FGR (P09769 whole entry): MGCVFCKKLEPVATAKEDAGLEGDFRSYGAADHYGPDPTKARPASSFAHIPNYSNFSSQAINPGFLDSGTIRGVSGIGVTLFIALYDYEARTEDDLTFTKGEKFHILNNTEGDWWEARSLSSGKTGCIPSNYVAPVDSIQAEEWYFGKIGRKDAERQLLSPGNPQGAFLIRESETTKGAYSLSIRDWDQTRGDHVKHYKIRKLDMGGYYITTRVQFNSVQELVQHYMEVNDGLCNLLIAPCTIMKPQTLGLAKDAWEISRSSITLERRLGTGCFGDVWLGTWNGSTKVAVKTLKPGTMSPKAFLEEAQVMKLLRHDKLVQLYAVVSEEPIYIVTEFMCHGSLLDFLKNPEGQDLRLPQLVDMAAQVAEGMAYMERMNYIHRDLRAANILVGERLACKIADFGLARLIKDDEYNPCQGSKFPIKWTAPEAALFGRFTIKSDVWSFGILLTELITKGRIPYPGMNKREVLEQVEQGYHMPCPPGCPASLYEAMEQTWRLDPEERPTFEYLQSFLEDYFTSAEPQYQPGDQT

SMILES | remaining activity at 1 µM (FGR) [%] | remaining activity at 1 µM (ZIPK/DAPK3) [%] | remaining activity at 1 µM (PKG2/PRKG2) [%] | % enzyme activity (SYK) [%] | % enzyme activity (PKD2/PRKD2) [%] | remaining activity at 1 µM (PRKX) [%] | remaining activity at 1 µM (NEK11) [%] | remaining activity at 1 µM (MEK1) [%] | % enzyme activity at 1 μM (ALK3/BMPR1A)
COc1cc(-c2cncc(-c3ccc(N4CCN(C)CC4)cc3)c2C)cc(F)c1C(N)=O [Compound 26a, 2-Fluoro-6-methoxy-4-(4-methyl-5-(4-(4-methylpiperazin-1-yl)phenyl)pyridin-3-yl)benzamide] | 83.1 | 104 | 98.9 | 100.12 | 95.72 | 99.9 | 90.6 | 97.5 | 40.2% and 38.4%
COc1cc(-c2cncc(-c3ccc(N4C[C@@H](C)N(C)[C@@H](C)C4)cc3)c2C)cc(F)c1C(N)=O [Compound 26c, 2-Fluoro-6-methoxy-4-(4-methyl-5-(4-((3R,5S)-3,4,5-trimethylpiperazin-1-yl)phenyl)pyridin-3-yl)benzamide] | 89.4 | 104 | 98.5 | 101.24 | 98.89 | 91.3 | 91.9 | 95.1 | 50.5% and 50%
